Data from US4299839A, “Novel pesticides and pesticidal compositions cyclopropanecarboxylates and pesticidal method” (priority 1979, dated 1981).

System: green rice leafhoppers
Test: Utility Example 1: emulsifiable concentrate sprayed over rice seedlings, green rice leafhopper mortality
Type: in vivo
Conditions: 30% emulsifiable concentrate diluted 300-fold, 100 ml/pot, 24 hours; cis/trans 50/50
Protocol: To 30 parts of each of Compounds (1) to (38) were added 50 parts of xylene and 20 parts of Sorpol SM-200 (a surfactant, trademark of Toho Chemical Co., Ltd.). The mixture was stirred well and dissolved to obtain a 30% emulsifiable concentrate.
The emulsifiable concentrate prepared from Compounds (7), (11), (12), (15), (17), (21) and (22) [Each compound is a mixture of cis- and trans-isomer in a ratio 50/50] in Formulation Example 5 were each diluted 300-fold with water. Then, each of the dilutions was sprayed over rice seedlings 25 days after sowing at the rate of 100 ml/pot. The pot was covered with a wire net and 15 green rice leafhoppers were released under the net. After 24 hours, the leafhoppers were examined for deaths. The mortality (%) was not less than 90% for each of Compounds (7), (11), (12), (15), (17), (21) and (22).

| Structure (SMILES) | Mortality (%) |
| --- | --- |
| CC1(C)C(CC(Cl)(Cl)Cl)C1C(=O)OC(C#N)c1cccc(Oc2ccc(Br)cc2)c1 (stereo not drawn) [(17), 3-(4-Bromophenoxy)-α-cyanobenzyl 2,2-dimethyl-3-(2,2,2-trichloroethyl)cyclopropanecarboxylate] | not less than 90% |
| C#CC(OC(=O)C1C(CC(Cl)(Cl)Cl)C1(C)C)c1cccc(Oc2ccc(Br)cc2)c1 (stereo not drawn) [(22), 3-(4-Bromophenoxy)-α-ethynylbenzyl 2,2-dimethyl-3-(2,2,2-trichloroethyl)cyclopropanecarboxylate] | not less than 90% |
